13 compounds from patent US11649227B2, “Allosteric chromenone inhibitors of phosphoinositide 3-kinase (PI3K) for the treatment of disease” (Petra Pharma Corporation, priority 2020, dated 2023) can be followed below.

The target in the assay is human full length PIK3CA Wild-type (p110α/p85α complex) (Homo sapiens (Human), UniProt P42336). Briefly: PI3K-Alpha kinase (PIK3CA) activity, wild-type, Transcreener ADP2 FI assay. The settings on record: PI3K-α (PIK3CA) wild-type, biochemical. As for the experimental part: PI3K-Alpha kinase (PIK3CA) activity, wild-type and H1047R mutant and determining IC50 values for inhibitors
Recombinant, catalytically active human full length PIK3KA Wild-type and H1047R mutant were purchased as 1:1 complex of N-terminal 6×his tagged p110<(catalytic) and untagged p85<(regulatory subunit) from EMD Millipore Sigma (cat. no. 14-602M and 14-792M, respectively). The enzyme stocks were diluted to 5× stocks in buffer (20 mM HEPES pH 7.4, 100 mM NaCl, 0.5 mM EGTA, 0.01% triton-x-100) just before use. PIP2diC8 (Avanti Polar Lipids Inc., cat. no. 850185) or phosphoinositol-4,5-bisphosphate with phosphoserine (PIP2:PS) membrane (Thermo Fisher Scientific, cat. no. PV5100) was used as lipid substrates. PIP2diC8 lyophilized powder and PIP2:PS (1:19) membrane stock (1 mM in PIP2) were separately dissolved in milliQ water to a concentration of 250 uM and stored in −20° C. 10 mM stocks of compounds were serially diluted (3×) in neat DMSO and stored in a dessicator at room temperature. 5× compound stocks in 25% DMSO were prepared fresh from neat DMSO stocks. Wild-type (WT) and H1047R mutant protein, along with buffer components (except ATP), were incubated with or without compound at 27° C. for 1h. After incubation, the reaction was initiated by the addition of 5 uL of 125 uM ATP. A typical assay mixture (25 uL) comprised 40 mM HEPES buffer, pH 7.4, 25 mM MgCl2, 0.01% v/v triton-X-100, 5% v/v DMSO, 20 mM NaCl, 1-5 nM wt or H1047R, 25 uM ATP, and 50 uM PTP2diC8 or PTP2 in membrane. The reaction was allowed to proceed until about […] (2.5 uM ADP) after which time, 10 uL of reaction mixture was quenched with 25 uL of transcreener reagent (Transcreener ADP2 FI assay kit, BellBrook labs, Cat. No. 3013). The contents were incubated at rt for 1h and fluorescence was measured using a plate reader (Paradigm, Molecular Devices). The same assay was also run at pH 6.0 or 6.4 using MOPS buffer (Fisher BioReagents, CAS 1132-61-2). A calibration curve was generated under identical buffer conditions with varying ADP amounts. Using that, the observed fluorescence was converted to uM ADP. A plot between [ADP] and log[I] yielded the dose-response curves that enabled the calculation of IC50s.

Sequence of human full length PIK3CA Wild-type (p110α/p85α complex) (P42336 whole entry): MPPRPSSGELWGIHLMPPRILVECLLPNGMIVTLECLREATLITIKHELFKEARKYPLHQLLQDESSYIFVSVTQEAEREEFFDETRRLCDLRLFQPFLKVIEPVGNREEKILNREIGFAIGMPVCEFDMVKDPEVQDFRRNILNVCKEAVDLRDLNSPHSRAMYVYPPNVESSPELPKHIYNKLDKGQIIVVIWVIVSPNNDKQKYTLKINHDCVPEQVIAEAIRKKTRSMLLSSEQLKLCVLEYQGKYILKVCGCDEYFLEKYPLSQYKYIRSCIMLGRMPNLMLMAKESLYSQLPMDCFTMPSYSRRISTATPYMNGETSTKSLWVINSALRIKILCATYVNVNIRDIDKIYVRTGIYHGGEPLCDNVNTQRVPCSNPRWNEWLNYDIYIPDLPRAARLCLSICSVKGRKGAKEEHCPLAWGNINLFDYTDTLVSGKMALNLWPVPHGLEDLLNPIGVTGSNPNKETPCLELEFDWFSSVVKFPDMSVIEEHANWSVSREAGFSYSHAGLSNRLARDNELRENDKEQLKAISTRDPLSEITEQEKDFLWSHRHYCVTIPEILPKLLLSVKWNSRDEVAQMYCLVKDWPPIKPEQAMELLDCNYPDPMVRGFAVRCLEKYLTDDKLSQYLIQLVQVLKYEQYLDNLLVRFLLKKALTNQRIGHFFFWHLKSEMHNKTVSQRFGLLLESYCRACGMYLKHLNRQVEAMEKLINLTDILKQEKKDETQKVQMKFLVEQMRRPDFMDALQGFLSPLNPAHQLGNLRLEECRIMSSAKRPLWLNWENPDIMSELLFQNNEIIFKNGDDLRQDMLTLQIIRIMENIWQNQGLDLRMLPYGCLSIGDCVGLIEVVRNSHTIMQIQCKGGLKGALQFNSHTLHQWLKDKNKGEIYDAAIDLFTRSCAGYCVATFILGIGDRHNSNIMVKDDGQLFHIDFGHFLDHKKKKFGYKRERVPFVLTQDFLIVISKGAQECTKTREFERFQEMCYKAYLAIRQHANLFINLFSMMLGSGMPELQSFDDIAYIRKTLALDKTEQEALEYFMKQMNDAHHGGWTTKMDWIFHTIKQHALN
Sequence of human full length PIK3CA Wild-type (p110α/p85α complex) (P27986 whole entry partner): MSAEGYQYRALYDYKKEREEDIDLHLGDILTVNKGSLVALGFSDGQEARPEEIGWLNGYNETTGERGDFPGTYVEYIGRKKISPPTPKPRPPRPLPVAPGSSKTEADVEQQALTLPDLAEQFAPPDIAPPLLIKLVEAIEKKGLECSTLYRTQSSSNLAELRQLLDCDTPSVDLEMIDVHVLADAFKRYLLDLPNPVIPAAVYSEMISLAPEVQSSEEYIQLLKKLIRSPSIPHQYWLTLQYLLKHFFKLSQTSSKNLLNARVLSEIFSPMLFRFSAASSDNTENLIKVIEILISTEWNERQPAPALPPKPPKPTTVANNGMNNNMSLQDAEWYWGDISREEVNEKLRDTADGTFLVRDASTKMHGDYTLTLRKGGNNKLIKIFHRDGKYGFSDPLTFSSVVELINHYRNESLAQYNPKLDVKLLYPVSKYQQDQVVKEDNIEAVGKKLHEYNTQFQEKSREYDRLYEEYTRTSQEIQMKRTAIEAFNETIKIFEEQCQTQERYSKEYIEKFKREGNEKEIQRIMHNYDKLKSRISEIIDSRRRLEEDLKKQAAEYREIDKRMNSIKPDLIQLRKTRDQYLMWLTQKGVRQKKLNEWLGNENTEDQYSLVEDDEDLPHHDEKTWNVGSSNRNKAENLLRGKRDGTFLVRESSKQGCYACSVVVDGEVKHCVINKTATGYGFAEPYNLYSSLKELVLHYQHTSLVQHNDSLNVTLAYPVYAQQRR

Consider `CCc1c(N2CCC(C)(C)CC2)oc2c(C(C)Nc3ccccc3C(=O)O)cc(C)cc2c1=O` (stereo not shown) [Example 55, 2-[1-[2-(4,4-dimethyl-1-piperidyl)-3-ethyl-6-methyl-4-oxo-chromen-8-yl]ethylamino]benzoic acid], for which the IC50 was 1 to 5 µM.

The compound `Cc1cc(C(C)Nc2ccccc2C(=O)O)c2oc(N3CCCC(C)(C)C3)cc(=O)c2c1` (stereo not shown) [Example 65, 2-[1-[2-(3,3-Dimethyl-1-piperidyl)-6-methyl-4-oxo-chromen-8-yl]ethylamino]benzoic acid] gave an IC50 of 5 to 10 µM. As to `Cc1cc(C(C)Nc2ccccc2C(=O)O)c2oc(N3CC4(CCCCC4)C3)cc(=O)c2c1` (stereo not shown) [Example 88, 2-[1-[2-(2-Azaspiro[3.5]nonan-2-yl)-6-methyl-4-oxo-chromen-8-yl]ethylamino]benzoic acid], the IC50 lay in the range of 5 to 10 µM. Then `Cc1cc(C(C)Nc2ccccc2C(=O)O)c2oc(N3Cc4ccc(F)cc4C3)cc(=O)c2c1` (stereo not shown) [Example 105, 2-[1-[2-(5-Fluoroisoindolin-2-yl)-6-methyl-4-oxo-chromen-8-yl]ethylamino]benzoic acid], with 5 to 10 µM; and `Cc1cc(C(C)Nc2ccccc2C(=O)O)c2oc(N3CCn4cccc4C3)cc(=O)c2c1` (stereo not shown) [Example 171, 2-[1-[2-(3,4-Dihydro-1H-pyrrolo[1,2-a]pyrazin-2-yl)-6-methyl-4-oxo-chromen-8-yl]ethylamino]benzoic acid], with 0.5 to 1 µM; and `Cc1cc(C(C)Nc2ccccc2C(=O)O)c2oc(N3CC4CC(C4)C3)cc(=O)c2c1` (stereo not shown) [Example 177, 2-[1-[2-(3-Azabicyclo[3.1.1]heptan-3-yl)-6-methyl-4-oxo-chromen-8-yl]ethylamino]benzoic acid 2,2,2-trifluoroacetic acid], with 1 to 5 µM. Take `Cc1cc(C(C)Nc2ccccc2C(=O)O)c2oc(N3CC(C(C)(F)F)C3)cc(=O)c2c1` (stereo not drawn) [Example 189, 2-[1-[2-[3-(1,1-Difluoroethyl)azetidin-l-yl]-6-methyl-4-oxo-chromen-8-yl]ethylamino]benzoic acid 2,2,2-trifluoroacetic acid]: the IC50 was 1 to 5 µM. Then `Cc1cc(C(C)Nc2ccccc2C(=O)O)c2oc(N3CCc4ccccc4C3)cc(=O)c2c1` (stereo not shown) [Example 233, 2-[1-[2-(3,4-Dihydro-1H-isoquinolin-2-yl)-6-methyl-4-oxo-chromen-8-yl]ethylamino]benzoic acid], with 1 to 5 µM; and `Cc1cc(C(C)Nc2sc(Cl)nc2C(=O)O)c2oc(N3Cc4ccccc4C3)cc(=O)c2c1` (stereo not shown) [Example 245, 2-Chloro-5-[1-(2-isoindolin-2-yl-6-methyl-4-oxo-chromen-8-yl)ethylamino]thiazole-4-carboxylic acid 2,2,2-trifluoroacetic acid], with 0.5 to 1 µM; and `Cc1cc([C@@H](C)Nc2ccccc2C(=O)O)c2oc(N3CCC(C#N)(c4ccccc4)CC3)c(C)c(=O)c2c1` [Example 288, 2-[[(1R)-1-[2-(4-Cyano-4-phenyl-1-piperidyl)-3,6-dimethyl-4-oxo-chromen-8-yl]ethyl]amino]benzoic acid], with 0.5 to 1 µM. In turn, `Cc1cc([C@@H](C)Nc2ccccc2C(=O)O)c2oc(N3CC4(CCC4(F)F)C3)c(C)c(=O)c2c1` [Example 289, 2-[[(1R)-1-[2-(7,7-Difluoro-2-azaspiro[3.3]heptan-2-yl)-3,6-dimethyl-4-oxo-chromen-8-yl]ethyl]amino]benzoic acid] yielded an IC50 of 0.5 to 1 µM. The compound `Cc1cc(C(C)Nc2ccc(Cl)nc2C(=O)O)c2oc(N3Cc4ccc(F)cc4C3)cc(=O)c2c1` (stereo not shown) [Example 297, 6-Chloro-3-[1-[2-(5-fluoroisoindolin-2-yl)-6-methyl-4-oxo-chromen-8-yl]ethylamino]pyridine-2-carboxylic acid] yielded an IC50 of 1 to 5 µM. `Cc1cc(C(C)Nc2ccc(Cl)nc2C(=O)O)c2oc(N3Cc4ccc5c(c4C3)OCO5)cc(=O)c2c1` (stereo not shown) [Example 299, 6-Chloro-3-[1-[2-(6,8-dihydro-[1,3]dioxolo[4,5-e]isoindol-7-yl)-6-methyl-4-oxo-chromen-8-yl]ethylamino]pyridine-2-carboxylic acid] gave an IC50 of 0.5 to 1 µM.
